{
  "source": "patent EP0497299A1",
  "about": "“Decarestrictine and related compounds, process for their preparation and use” (HOECHST AKTIENGESELLSCHAFT, priority 1991, dated 1992)",
  "tested_on": "Cholesterinbiosynthese",
  "assay": "Inhibition of cholesterol biosynthesis from 14C-acetate in HEP-G2 liver cell culture",
  "assay_type": "cell-based",
  "details": "Homo sapiens, HepG2, 3 h, HEP-G2-Zellen; for IC50: (¹⁴C)Natriumacetat, standard preparations, read-out: IC₅₀; for inhibition at 0.01 µM: Konzentration von 10⁻⁸ mol/l, read-out: Hemmung der Cholesterinbiosynthese",
  "source_text": "2. Die biologische Wirksamkeit der Verbindungen als Inhibitor an der Cholesterinbiosynthese läßt sich in vitro in Leberzellkulturen nachweisen.\nMonolayer von HEP-G2-Zellen in lipoproteinfreiem Nährmedium werden mit entsprechenden Konzentrationen der zu prüfenden Substanzen der allgemeinen Formel I eine Stunde vorinkubiert. Nach Zugabe der ¹⁴C-markierten Biosynthesevorstufe (¹⁴C)Natriumacetat wird die Inkubation für 3 Stunden fortgesetzt. Danach wird ein Teil der Zellen alkalisch verseift, bei vorheriger Zugabe eines internen Standards von ³H-Cholesterin. Die Lipide der verseiften Zellen werden mit einem Gemisch aus Chloroform-Methanol extrahiert. Dieses Lipidgemisch wird nach Zusatz von Trägercholesterin präparativ dünnschichtchromatographisch aufgetrennt, die Cholesterinbande nach Anfärbung isoliert und die aus dem ¹⁴C-Precursor gebildete Menge ¹⁴C-Cholesterin szintigraphisch bestimmt. In einem aliquoten Teil der Zellen wurde Zellprotein bestimmt, so daß die in der Zelleinheit pro mg Zellprotein aus ¹⁴C-Präkusor gebildete Menge ¹⁴C-Cholesterins berechnet werden kann. Zum Vergleich für die Hemmwirkung eines zugesetzten Prüfpräparates dient die Kontrolle, so daß direkt die Hemmung der Cholesterinbiosynthese bei einer bestimmten molaren Konzentration des Prüfpräparates im Medium angegeben werden kann. In aliquoten Anteilen der Zellkultur wird die Intaktheit der Zellkultur und die fehlende Zellschädigung durch Präparateeinwirkung morphologisch (Lichtmikroskopie) beurteilt und biochemisch durch Bestimmung der Lactat-Dehydrogenase-Abgabe ins Inkubationsmedium gemessen.",
  "data": [
    {"smiles": "C[C@H](CCCC(C)(C)O)[C@H]1CC[C@H]2[C@@H]3CC=C4C[C@@H](O)CC[C@]4(C)[C@H]3CC[C@]12C", "note": "[25-Hydroxycholesterin]", "values": [
      {"measurement": "IC50", "value": 230, "unit": "nM"}
    ]},
    {"smiles": "COC(=O)CC1CC(O)C(C(O)CC(C)O)O1", "note": "(stereo not shown) [Formel 1.4]", "values": [
      {"measurement": "inhibition at 0.01 µM", "value": 38, "unit": "%"}
    ]},
    {"smiles": "COC(=O)C=C1CC(O)C(C(O)CC(C)O)O1", "note": "(stereo not shown) [Formel 1.5]", "values": [
      {"measurement": "inhibition at 0.01 µM", "value": 60, "unit": "%"}
    ]},
    {"smiles": "CC[C@H](C)C(=O)O[C@H]1C[C@@H](C)C=C2C=C[C@H](C)[C@H](CC[C@@H]3C[C@@H](O)CC(=O)O3)[C@H]21", "note": "[Lovastatin]", "values": [
      {"measurement": "IC50", "value": 23, "unit": "nM"}
    ]}
  ]
}
